# Target: Human immunodeficiency virus type 1 protease (Human immunodeficiency virus 1, UniProt Q72874)
# Assay: Inhibitory activity was determined against HIV type 1 protease
row,Ki [nM],Structure (SMILES)
1,36.3,CC(C)(C)[C@H](NC(=O)OCc1ccccc1)C(=O)N[C@@H](Cc1ccccc1)[C@@H](O)[C@@H](NCc1ccccc1)C(=O)N[C@@H](CO)c1ccccc1
2,15.8,COc1ccc(CN[C@@H](C(=O)N[C@H](C(=O)NCC2CCCCC2O)C(C)C)[C@H](O)[C@H](Cc2ccccc2)NC(=O)[C@@H](NC(=O)OCc2ccccc2)C(C)C)cc1 (stereo partly drawn)
3,14.1,COc1ccc(CN[C@@H](C(=O)N[C@H](C(=O)NCc2ccc(N3NC=CS3)cc2)C(C)C)[C@H](O)[C@H](Cc2ccccc2)NC(=O)[C@@H](NC(=O)OCc2ccccc2)C(C)C)cc1
4,19.1,COc1ccc(CN[C@@H](C(=O)N[C@H](C(=O)NCc2nc3ccccc3[nH]2)C(C)C)[C@H](O)[C@H](Cc2ccccc2)NC(=O)[C@@H](NC(=O)OCc2nc3cc[nH]cc-3n2)C(C)(C)C)cc1
5,15.8,CC(C)[C@H](NC(=O)[C@H](NCc1ccccc1)[C@H](O)[C@H](Cc1ccccc1)NC(=O)[C@@H](NC(=O)OCC1c2ccccc2-c2ccccc21)C(C)(C)C)C(=O)NCc1ccccc1
6,11,CC(C)[C@H](NC(=O)OCc1ccccc1)C(=O)N[C@@H](Cc1ccccc1)[C@@H](O)[C@@H](NCc1ccccc1)C(=O)N[C@H](C(=O)NCc1ccncc1)C(C)C
7,5.62,CC(C)[C@H](NC(=O)[C@H](NCc1ccc(Br)cc1)[C@H](O)[C@H](Cc1ccccc1)NC(=O)[C@@H](NC(=O)c1ccc2ccccc2n1)C(C)(C)C)C(=O)NCc1nc2ccccc2[nH]1
8,33.9,CC(C)(C)[C@H](NC(=O)OCc1ccccc1)C(=O)N[C@@H](Cc1ccccc1)[C@@H](O)[C@@H](NCc1ccc(OCCO)cc1)C(=O)NCc1ccccc1
9,14.1,COc1ccc(CN[C@@H](C(=O)N[C@H](C(=O)N[C@H](CO)c2ccccc2)C(C)C)[C@H](O)[C@H](Cc2ccccc2)NC(=O)[C@@H](NC(=O)OCc2ccccc2)C(C)C)cc1
10,1700,CC(C)[C@H](NC(=O)OCc1ccccc1)C(=O)N[C@@H](Cc1ccccc1)[C@@H](O)[C@@H](NC1CCC(O)CC1)C(=O)N[C@H](C(=O)NCc1ccccc1)C(C)C (stereo in doubt; 282808)
11,12,COc1ccc(CN[C@@H](C(=O)N[C@H](C(=O)N(C)Cc2nc3ccccc3[nH]2)C(C)C)[C@H](O)[C@H](Cc2ccccc2)NC(=O)OC(C)(C)C)cc1
12,2510,CC(C)(C)OC(=O)N[C@@H](Cc1ccccc1)[C@@H](O)[C@@H](NCc1ccccc1)C(=O)NCc1ccccc1
13,28.2,CC(C)[C@H](NC(=O)OCc1ccccc1)C(=O)N[C@@H](Cc1ccccc1)[C@@H](O)[C@@H](NC[C@H](O)c1ccccc1)C(=O)N[C@H](C(=O)NCc1nc2ccccc2[nH]1)C(C)C
14,10,CC(C)(C)[C@H](NC(=O)OCc1ccccc1)C(=O)N[C@@H](Cc1ccccc1)[C@@H](O)[C@@H](NCc1ccc(CNC(=O)OCc2ccccc2)cc1)C(=O)N[C@H]1c2ccccc2CC1O (stereo partly drawn)
15,141,CC(C)[C@H](NC(=O)OCc1ccccc1)C(=O)N[C@@H](Cc1ccccc1)[C@@H](O)[C@H](NCc1ccccc1)C(=O)N[C@H](C(=O)NCc1cccnc1)C(C)C
16,24,COc1ccc(CN[C@@H](C(=O)N[C@H](C(=O)NCCN2CCOCC2)C(C)C)[C@H](O)[C@H](Cc2ccccc2)NC(=O)[C@@H](NC(=O)OCc2ccccc2)C(C)C)cc1
17,15.1,CC(C)[C@H](NC(=O)OCc1ccccc1)C(=O)N[C@@H](Cc1ccccc1)[C@@H](O)[C@@H](NCc1ccccc1)C(=O)N[C@H](C(=O)NCc1ccc(Br)cc1)C(C)C
18,9.77,COc1cccc(CN[C@@H](C(=O)N[C@H](C(=O)NCc2nc3ccccc3[nH]2)C(C)C)[C@H](O)[C@H](Cc2ccccc2)NC(=O)[C@@H](NC(=O)OCc2ccccc2)C(C)C)c1
19,91.2,CCOc1ccc(CN[C@@H](C(=O)N[C@H]2c3ccccc3CC2O)[C@H](O)[C@H](Cc2ccccc2)NC(=O)OC(C)(C)C)cc1 (stereo partly drawn)
20,417,CC(C)[C@H](NC(=O)[C@H](NCc1ccccc1)[C@H](O)[C@H](Cc1ccccc1)NC(=O)[C@@H](NC(=O)OC(C)(C)C)C(C)(C)C)C(=O)NCc1ccccc1
21,209,COc1ccc(CN[C@@H](C(=O)N[C@H]2c3ccccc3CC2O)[C@H](O)[C@H](Cc2ccccc2)NC(=O)[C@@H](NC(=O)OC(C)(C)C)C(C)(C)C)cc1 (stereo partly drawn)
22,10.2,COc1ccc(CN[C@@H](C(=O)N[C@H](C(=O)NCc2ccccc2)C(C)C)[C@H](O)[C@H](Cc2ccccc2)NC(=O)[C@@H](NC(=O)N(C)Cc2nc3ccccc3[nH]2)C(C)C)cc1
23,20,CC(C)[C@H](NC(=O)OCc1ccccc1)C(=O)N[C@@H](Cc1ccccc1)[C@@H](O)[C@@H](NCc1ccccc1)C(=O)N[C@H](C(=O)NCc1ccccc1)C(C)(C)C
24,5.25,COc1ccc(CN[C@@H](C(=O)N[C@H](C(=O)NCc2nc3ccccc3[nH]2)C(C)C)[C@H](O)[C@H](Cc2ccccc2)NC(=O)[C@@H](NC(=O)CCc2ccc(C(P(=O)(O)OCc3ccccc3)P(=O)(O)OCc3ccccc3)cc2)C(C)(C)C)cc1 (stereo partly drawn)
25,8.91,COc1ccc(CN[C@@H](C(=O)N[C@H](C(=O)NCCc2nc3ccccc3[nH]2)C(C)C)[C@H](O)[C@H](Cc2ccccc2)NC(=O)[C@@H](NC(=O)OCc2ccccc2)C(C)C)cc1

row,Ki [nM],Structure (SMILES)
1,15.8,CC(C)[C@H](NC(=O)[C@H](NCc1ccccc1)[C@H](O)[C@H](Cc1ccccc1)NC(=O)[C@@H](NC(=O)COc1ccccc1)C(C)(C)C)C(=O)NCc1ccccc1
2,14.1,COc1ccc(CN[C@@H](C(=O)N[C@H](C(=O)NCCc2ccc(S(N)(=O)=O)cc2)C(C)C)[C@H](O)[C@H](Cc2ccccc2)NC(=O)[C@@H](NC(=O)OCc2ccccc2)C(C)C)cc1
3,43.7,CC[C@H](C)[C@H](NC(=O)[C@H](NCc1ccccc1)[C@H](O)[C@H](Cc1ccccc1)NC(=O)[C@@H](NC(=O)OCc1ccccc1)C(C)C)C(=O)NCc1ccccc1
4,15.8,CC(C)(C)[C@H](NC(=O)OCc1ccccc1)C(=O)N[C@@H](Cc1ccccc1)[C@@H](O)[C@@H](NCc1ccc(OCCO)cc1)C(=O)N[C@H]1c2ccccc2CC1O (stereo partly drawn)
5,646,CC(C)[C@H](NC(=O)[C@H](NCc1ccccc1)[C@H](O)[C@H](Cc1ccccc1)NC(=O)[C@@H](NC(=O)N(C)c1ccccc1)C(C)(C)C)C(=O)NCc1ccccc1
6,2290,COc1ccc(CN[C@@H](C(=O)NCc2nc3ccccc3[nH]2)[C@H](O)[C@H](Cc2ccccc2)NC(=O)OC(C)(C)C)cc1
7,10,CCOc1ccc(CN[C@@H](C(=O)N[C@H]2c3ccccc3CC2O)[C@H](O)[C@H](Cc2ccccc2)NC(=O)[C@@H](NC(=O)OCc2ccccc2)C(C)(C)C)cc1 (stereo partly drawn)
8,26.9,CC(C)[C@H](NC(=O)[C@H](SCc1ccccc1)[C@H](O)[C@H](Cc1ccccc1)NC(=O)OC(C)(C)C)C(=O)NCc1ccccc1
9,11,CC(C)C[C@H](NC(=O)[C@H](NCc1ccccc1)[C@H](O)[C@H](Cc1ccccc1)NC(=O)[C@@H](NC(=O)OCc1ccccc1)C(C)C)C(=O)NCc1ccccc1
10,12.6,COc1ccc(CN[C@@H](C(=O)N[C@H](C(=O)NCc2nc3ccccc3[nH]2)C(C)C)[C@H](O)[C@H](Cc2ccccc2)NC(=O)[C@@H](NC(=O)OCc2ccccc2)C(C)C)cc1OC
11,6.92,CC(C)[C@H](N)C(=O)C[C@@H](Cc1ccccc1)[C@@H](O)[C@H]1CCc2ccc(cc2)OCCOCCCOCCNC(=O)[C@H](C(C)C)CC1=O
12,4.07,CC(C)(C)[C@H](NC(=O)OCc1ccccc1)C(=O)N[C@@H](Cc1ccccc1)[C@@H](O)[C@@H](NCc1ccc(CNC(=O)CCc2nc3ccccc3[nH]2)cc1)C(=O)N[C@H]1c2ccccc2CC1O (stereo partly drawn)
13,1580,CC(C)(C)[C@H](NC(=O)OCc1ccccc1)C(=O)N[C@@H](Cc1ccccc1)[C@@H](O)[C@@H](NCc1ccccc1)C(=O)N[C@@H]1c2ccccc2CC1O (stereo partly drawn)
14,1100,COC(=O)[C@@H](NC(=O)[C@H](NCc1ccccc1)[C@H](O)[C@H](Cc1ccccc1)NC(=O)[C@@H](NC(=O)OCc1ccccc1)C(C)C)C(C)C
15,1910,CCOC(=O)[C@H](NCc1ccc(CNCc2ccccc2)cc1)[C@H](O)[C@H](Cc1ccccc1)NC(=O)[C@@H](NC(=O)OCc1ccccc1)C(C)C
16,26.9,CC(C)[C@H](NC(=O)OCc1ccccn1)C(=O)N[C@@H](Cc1ccccc1)[C@@H](O)[C@@H](NCc1ccccc1)C(=O)N[C@H](C(=O)NCc1ccccn1)C(C)C
17,158,CC(C)[C@H](NC(=O)[C@H](NCc1ccccc1)[C@H](O)[C@H](Cc1ccccc1)NC(=O)OC(C)(C)C)C(=O)NCc1ccccc1
18,20.9,CC(C)[C@H](NC(=O)CCCCCNC(=O)OC(C)(C)C)C(=O)N[C@@H](Cc1ccccc1)[C@@H](O)[C@@H](NCc1ccccc1)C(=O)N[C@H](C(=O)NCc1ccccc1)C(C)C
19,933,CCOC(=O)[C@H](NCc1ccc(CNC(=O)c2ccccc2)cc1)[C@H](O)[C@H](Cc1ccccc1)NC(=O)[C@@H](NC(=O)OCc1ccccc1)C(C)C
20,6.03,COC(=O)CC[C@H](NC(=O)[C@H](NCc1ccc(OC)cc1)[C@H](O)[C@H](Cc1ccccc1)NC(=O)[C@@H](NC(=O)OCc1ccccc1)C(C)C)C(=O)NCc1ccc(OC)cc1O
21,1820,COc1ccc(CN[C@@H](C(=O)N[C@H]2c3ccccc3CC2O)[C@H](O)[C@H](Cc2ccccc2)NC(=O)[C@@H](NC(=O)OCc2ccccc2)C(C)(C)C)cc1 (stereo partly drawn)
22,22.9,CC(C)[C@H](NC(=O)OCc1ccccc1)C(=O)N[C@@H](Cc1ccccc1)[C@@H](O)[C@@H](NCc1ccccc1)C(=O)N[C@H](C(=O)OCc1nc2cc(Cl)c(Cl)cc2[nH]1)C(C)C
23,70.8,CC(=O)NCc1ccc(CN[C@@H](C(=O)N[C@H]2c3ccccc3CC2O)[C@H](O)[C@H](Cc2ccccc2)NC(=O)OC(C)(C)C)cc1 (stereo partly drawn)
24,11,COC(=O)CC[C@H](NC(=O)[C@H](NCc1ccc(OC)cc1)[C@H](O)[C@H](Cc1ccccc1)NC(=O)[C@@H](NC(=O)OCc1ccccc1)C(C)C)C(=O)NCc1nc2ccccc2[nH]1
25,1.24,CC(C)[C@H](NC(=O)[C@H](NCc1ccccc1)[C@H](O)[C@H](Cc1ccccc1)NC(=O)[C@@H](NC(=O)OCc1ccccn1)C(C)(C)C)C(=O)NCc1ccccc1

row,Structure (SMILES),Ki [nM]
1,CC(C)(C)[C@H](NC(=O)OCc1ccccc1)C(=O)N[C@@H](Cc1ccccc1)[C@@H](O)[C@@H](NCc1ccc(CNC(=O)Nc2ccccc2)cc1)C(=O)N[C@H]1c2ccccc2CC1O (stereo partly drawn),3.31
2,CC(C)(C)OC(=O)N[C@@H](Cc1ccccc1)[C@@H](O)[C@@H](NCc1ccc(CNC(=O)CCc2nc3ccccc3[nH]2)cc1)C(=O)N[C@H]1c2ccccc2CC1O (stereo partly drawn),40.7
3,CC(=O)NCc1ccc(CN[C@@H](C(=O)N[C@H]2c3ccccc3CC2O)[C@H](O)[C@H](Cc2ccccc2)NC(=O)[C@@H](NC(=O)OCc2ccccc2)C(C)(C)C)cc1 (stereo partly drawn),5.75
